# In US8338422B2, “Indolin-2-ones and aza-indolin-2-ones” (Janssen Pharmaceutica NV, priority 2007, dated 2012):
# What was measured:
# PLK4 (h) = PLK4 (h) (Homo sapiens, UniProt O00444); assay: PLK-4 human kinase assay (SPA); type: biochemical; details: read-out: PLK4 pIC50 (converted)
# Summary of the method: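 Radiometric readout: 33P-labelled peptide captured on streptavidin SPA beads after EDTA stop, imaged by Leadseeker. Reaction ran 60 min at room temperature in Hepes pH 8.0 buffer. It contained 1 μM ATP with 2 nM [γ-33P]ATP, 10 μM biotinylated peptide and PLK4 (h) at 19 μg/ml.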
# AuroraB (h) = AuroraB (h) (Homo sapiens, UniProt Q96GD4); assay: Aurora-B human kinase assay (SPA); type: biochemical; details: read-out: AuroraB pIC50 (converted)
# Summary of the method: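 Scintillation proximity assay: AuroraB (h) at 0.5 μg/ml with 3 μM biotinylated peptide, 0.5 μM ATP and 2.2 nM [γ-33P]ATP in 60 mM Hepes pH 7.5, 3 mM MgCl2, 3 mM MnCl2, 2 mM DTT. 60 min at room temperature, EDTA stop, streptavidin PVT beads read on Leadseeker.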
# GSK3β (h) = GSK3β (h) (Homo sapiens, UniProt P49841); assay: GSK-3β human kinase assay (SPA); type: biochemical; details: read-out: GSK3B pIC50 (converted)
# Summary of the method: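 Radiometric SPA read-out: after EDTA stop, biotinylated 33P-labelled peptide bound streptavidin PVT beads and was imaged on Leadseeker. Reaction: 60 min, room temperature, GSK3β (h) at 1 μg/ml, 1 μM substrate peptide, 1 μM ATP with 2 nM [γ-33P]ATP, Tris pH 7.4/MgCl2/DTT buffer.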
# CDK1/CyclinB (h) = CDK1/CyclinB (h) (Homo sapiens, UniProt P06493); assay: CDK1/CyclinB human kinase assay (FRET); type: biochemical; details: read-out: CDK1 pIC50 (converted)
# Summary of the method: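 Z'-LYTE FRET format: 0.2 μg/ml enzyme with 2 μM Ser/Thr peptide 12 and 10 μM ATP in 50 mM Hepes pH 7.5, 10 mM MgCl2, 1 mM EGTA, 0.01% Brij-35, 60 min at room temperature. Protease development 60 min; coumarin/fluorescein emission ratio (460/538 nm, excitation 390 nm) reports phosphorylation.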
# A2780 = assay: Cellular proliferation assay (Alamar blue), A2780; type: cell-based; details: Homo sapiens, A2780, 72 h, A2780 cells, 72 hours with compound, 10% FCS, read-out: pIC50 A2780 (converted)
# Summary of the method: (§1)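 Proliferation was assessed over 72 h of compound treatment, following 24 h of seeding without compound, under 10% FCS, 37° C. and 5% CO2. Fluorescent resazurin product was measured and compared with control cells.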
# HCT-116 = assay: Cellular proliferation assay (Alamar blue), HCT-116; type: cell-based; details: Homo sapiens, HCT-116, 72 h, HCT-116 cells, 72 hours with compound, 10% FCS, read-out: pIC50 HCT-116 (converted)
# Summary of the method: as §1
# H1299 = assay: Cellular proliferation assay (Alamar blue), H1299; type: cell-based; details: Homo sapiens, NCI-H1299, 72 h, H1299 cells, 72 hours with compound, 10% FCS, read-out: pIC50 H1299 (converted)
# Summary of the method: as §1
# MDA/MB231 = assay: Cellular proliferation assay (Alamar blue), MDA/MB231; type: cell-based; details: Homo sapiens, MDA-MB-231, 72 h, MDA/MB231 cells, 72 hours with compound, 10% FCS, read-out: pIC50 MDA/MB231 (converted)
# Summary of the method: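 Seed cells, 24 h, no compound; add compound, 72 h, 10% FCS, 37° C./5% CO2; add resazurin 9 μg/ml with K-ferrocyanide and K-ferricyanide 90 μM each (4 h H460, 24 h MDA-MB-231); read fluorescence 544/590 nm; effect vs control cells.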
# U87MG = assay: Cellular proliferation assay (Alamar blue), U87MG; type: cell-based; details: Homo sapiens, U-87 MG, 72 h, U87MG cells, 72 hours with compound, 10% FCS, read-out: pIC50 U87MG (converted)
# Summary of the method: as §1
# PC-3 = assay: Cellular proliferation assay (Alamar blue), PC-3; type: cell-based; details: Homo sapiens, PC-3, 72 h, PC-3 cells, 72 hours with compound, 10% FCS, read-out: pIC50 PC-3 (converted)
# Summary of the method: as §1
# Chain of CDK1/CyclinB (h) (P06493 whole entry): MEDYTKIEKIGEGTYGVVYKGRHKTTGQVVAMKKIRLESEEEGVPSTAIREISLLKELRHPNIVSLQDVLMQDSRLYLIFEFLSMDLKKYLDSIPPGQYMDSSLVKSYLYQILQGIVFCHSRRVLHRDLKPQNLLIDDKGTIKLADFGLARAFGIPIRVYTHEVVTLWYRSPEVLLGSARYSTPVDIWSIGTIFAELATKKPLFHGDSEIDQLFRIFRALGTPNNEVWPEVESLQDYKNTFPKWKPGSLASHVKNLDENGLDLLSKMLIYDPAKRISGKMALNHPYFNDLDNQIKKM
# Chain of CDK1/CyclinB (h) (P14635 whole entry partner): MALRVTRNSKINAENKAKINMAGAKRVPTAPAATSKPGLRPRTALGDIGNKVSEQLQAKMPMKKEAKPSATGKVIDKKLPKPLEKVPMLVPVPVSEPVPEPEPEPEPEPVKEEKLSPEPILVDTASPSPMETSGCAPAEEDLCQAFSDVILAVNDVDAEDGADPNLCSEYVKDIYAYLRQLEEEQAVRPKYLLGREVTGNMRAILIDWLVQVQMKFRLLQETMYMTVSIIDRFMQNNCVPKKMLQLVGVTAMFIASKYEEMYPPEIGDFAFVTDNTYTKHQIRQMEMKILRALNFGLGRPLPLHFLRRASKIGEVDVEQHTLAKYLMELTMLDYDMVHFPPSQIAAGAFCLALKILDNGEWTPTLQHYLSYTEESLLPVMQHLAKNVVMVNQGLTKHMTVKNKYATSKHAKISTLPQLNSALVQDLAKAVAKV
# Chain of GSK3β (h) (P49841 whole entry): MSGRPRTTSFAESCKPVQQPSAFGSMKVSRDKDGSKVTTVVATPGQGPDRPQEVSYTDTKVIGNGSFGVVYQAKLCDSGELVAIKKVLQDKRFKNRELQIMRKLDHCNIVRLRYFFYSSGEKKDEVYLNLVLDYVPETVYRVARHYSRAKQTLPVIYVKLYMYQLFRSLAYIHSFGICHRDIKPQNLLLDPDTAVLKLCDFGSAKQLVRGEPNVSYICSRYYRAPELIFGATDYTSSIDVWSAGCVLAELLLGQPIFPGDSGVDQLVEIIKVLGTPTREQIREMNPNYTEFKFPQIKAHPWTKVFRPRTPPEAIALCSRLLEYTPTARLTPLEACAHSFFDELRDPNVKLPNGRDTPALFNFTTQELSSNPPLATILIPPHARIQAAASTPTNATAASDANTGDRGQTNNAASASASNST
# Chain of AuroraB (h) (Q96GD4 whole entry): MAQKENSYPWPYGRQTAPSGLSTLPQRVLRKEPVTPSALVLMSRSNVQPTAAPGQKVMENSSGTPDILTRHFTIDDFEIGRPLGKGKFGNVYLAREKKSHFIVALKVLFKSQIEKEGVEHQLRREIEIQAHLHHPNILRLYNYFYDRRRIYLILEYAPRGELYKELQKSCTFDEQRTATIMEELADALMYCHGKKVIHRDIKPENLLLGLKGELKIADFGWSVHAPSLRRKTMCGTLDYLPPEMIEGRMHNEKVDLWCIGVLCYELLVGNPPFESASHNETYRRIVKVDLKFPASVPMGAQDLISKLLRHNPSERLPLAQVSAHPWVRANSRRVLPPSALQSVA
# Chain of PLK4 (h) (O00444 whole entry): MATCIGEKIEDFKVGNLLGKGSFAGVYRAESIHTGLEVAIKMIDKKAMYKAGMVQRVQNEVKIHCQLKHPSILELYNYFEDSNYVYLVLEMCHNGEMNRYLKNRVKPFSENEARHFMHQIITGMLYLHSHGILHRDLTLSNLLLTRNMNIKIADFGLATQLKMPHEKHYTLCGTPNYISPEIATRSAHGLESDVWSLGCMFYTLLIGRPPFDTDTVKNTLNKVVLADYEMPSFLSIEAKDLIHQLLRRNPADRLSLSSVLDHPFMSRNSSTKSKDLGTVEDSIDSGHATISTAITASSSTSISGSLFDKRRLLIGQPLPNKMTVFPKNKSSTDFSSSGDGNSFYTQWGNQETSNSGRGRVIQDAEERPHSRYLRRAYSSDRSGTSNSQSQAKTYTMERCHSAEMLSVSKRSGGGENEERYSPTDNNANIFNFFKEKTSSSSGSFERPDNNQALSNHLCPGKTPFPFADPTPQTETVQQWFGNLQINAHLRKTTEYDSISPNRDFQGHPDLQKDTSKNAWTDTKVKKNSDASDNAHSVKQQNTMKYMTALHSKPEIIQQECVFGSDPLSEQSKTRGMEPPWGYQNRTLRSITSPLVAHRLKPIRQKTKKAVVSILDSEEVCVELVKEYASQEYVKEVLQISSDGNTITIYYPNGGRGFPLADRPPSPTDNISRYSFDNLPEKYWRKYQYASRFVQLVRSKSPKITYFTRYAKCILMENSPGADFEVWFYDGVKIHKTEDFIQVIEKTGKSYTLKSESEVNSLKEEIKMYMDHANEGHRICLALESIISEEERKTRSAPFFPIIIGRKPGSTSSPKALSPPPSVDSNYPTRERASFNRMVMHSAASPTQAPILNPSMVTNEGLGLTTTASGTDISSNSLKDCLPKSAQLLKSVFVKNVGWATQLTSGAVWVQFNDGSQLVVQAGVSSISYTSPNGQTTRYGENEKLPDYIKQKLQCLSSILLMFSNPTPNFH
Compound,IC50 (PLK4 (h)) [µM],IC50 (AuroraB (h)) [µM],IC50 (GSK3β (h)) [µM],IC50 (CDK1/CyclinB (h)) [µM],IC50 (A2780) [µM],IC50 (HCT-116) [µM],IC50 (H1299) [µM],IC50 (U87MG) [µM],IC50 (PC-3) [µM],IC50 (MDA/MB231) [µM]
CN1CCNc2ncnc3c2/C(=C/Nc2cccc(c2)OCCCCCC1=O)C(=O)N3 [Compound 39],3.72,1.26,0.282,5.62,> 10,3.8,> 10,7.94,> 10,> 10
CN1CCNC(=O)CCCOc2cccc(c2)N/C=C2\C(=O)Nc3ncnc1c32 [Compound 40],4.9,8.32,1.51,7.08,> 10,> 10,> 10,> 10,> 10,> 10
CN1CCNC(=O)CCCCCOc2cccc(c2)N/C=C2\C(=O)Nc3ncnc1c32 [Compound 41],1.78,> 10,2.45,5.01,> 10,> 10,> 10,> 10,> 10,> 10
CN1CCNc2ncnc3c2/C(=C/Nc2cccc(c2)OCCCCC1=O)C(=O)N3 [Compound 42],1.7,1.38,0.295,5.89,> 10,2.19,> 10,> 10,> 10,> 10
COc1ccc2cc1OCCCCC(=O)N(C)CCNc1ncnc3c1/C(=C/N2)C(=O)N3 [Compound 45],0.537,0.24,0.12,2.19,> 10,1.91,2.82,1.66,9.12,> 10
COc1ccc2cc1OCCCCCCC(=O)NCCN(C)c1ncnc3c1/C(=C/N2)C(=O)N3 [Compound 47],2.29,8.71,4.79,> 10,> 10,> 10,> 10,> 10,> 10,> 10
COc1ccc2cc1CN(C)CCCCCC(=O)NCCN(C)c1ncnc3c1/C(=C/N2)C(=O)N3 [Compound 48],> 10,> 10,> 10,> 10,> 10,> 10,> 10,> 10,> 10,> 10
CN1CCNC(=O)CCCCCCOc2cc(ccc2Cl)N/C=C2\C(=O)Nc3ncnc1c32 [Compound 49],7.41,> 10,> 10,> 10,> 10,> 10,> 10,> 10,> 10,> 10
COc1ccc2cc1CN(C)CCCCCCC(=O)NCCN(C)c1ncnc3c1/C(=C/N2)C(=O)N3 [Compound 50],> 10,> 10,> 10,> 10,> 10,> 10,> 10,> 10,> 10,> 10
COc1ccc2cc1CN(C)CCCCC(=O)NCCN(C)c1ncnc3c1/C(=C/N2)C(=O)N3 [Compound 51],> 10,> 10,> 10,> 10,> 10,> 10,> 10,> 10,> 10,> 10
CN1CCNC(=O)CCCCCOc2cc(ccc2Cl)N/C=C2\C(=O)Nc3ncnc1c32 [Compound 52],9.55,6.61,4.47,> 10,> 10,1.95,> 10,7.24,> 10,> 10
CN1CCNc2ncnc3c2/C(=C/Nc2cccc(c2)OCC(=O)N(C)CC1)C(=O)N3 [Compound 148],1.82,4.47,1,> 10,> 10,> 10,> 10,> 10,> 10,> 10

# Continued, in another order:
IC50 (PLK4 (h)) [µM],IC50 (AuroraB (h)) [µM],IC50 (GSK3β (h)) [µM],IC50 (CDK1/CyclinB (h)) [µM],IC50 (A2780) [µM],IC50 (HCT-116) [µM],IC50 (H1299) [µM],IC50 (U87MG) [µM],IC50 (PC-3) [µM],Compound,IC50 (MDA/MB231) [µM]
2.34,> 10,0.794,> 10,> 10,> 10,> 10,> 10,> 10,CN1CCCN(C)c2ncnc3c2/C(=C/Nc2cccc(c2)OCCCCCCC1=O)C(=O)N3 [Compound 53],> 10
> 10,> 10,> 10,> 10,> 10,> 10,> 10,> 10,> 10,CN1CCCCCCC(=O)NCCN(C)c2ncnc3c2/C(=C/Nc2cccc(c2)C1)C(=O)N3 [Compound 54],> 10
> 10,> 10,> 10,> 10,> 10,> 10,> 10,> 10,> 10,CN1CCNC(=O)CCCOc2cc(ccc2Cl)N/C=C2\C(=O)Nc3ncnc1c32 [Compound 55],> 10
0.105,0.191,0.115,0.0479,> 10,0.55,0.562,5.25,> 10,COc1cc2cc(c1OC)OCCCC(=O)N(C)CCCNc1ncnc3c1/C(=C/N2)C(=O)N3 [Compound 112],> 10
> 10,> 10,9.77,> 10,> 10,> 10,> 10,> 10,> 10,COc1cc2cc(c1OC)CN(C)CC(=O)N(C)CCCNc1ncnc3c1/C(=C/N2)C(=O)N3 [Compound 125],> 10
0.676,> 10,3.89,> 10,> 10,> 10,> 10,6.31,> 10,CN1CCN(c2ccc3cc2CN(C)CCCCCC(=O)N(C)CCNc2ncnc4c2/C(=C/N3)C(=O)N4)CC1 [Compound 126],> 10
4.9,0.309,> 10,> 10,> 10,4.9,8.91,6.31,8.13,CN1CCCNc2ncnc3c2/C(=C/Nc2cc(cc(C(F)(F)F)c2)OCCCCC1=O)C(=O)N3 [Compound 130],> 10
0.417,> 10,> 10,> 10,> 10,0.912,> 10,> 10,> 10,COc1cc2cc(c1OC)OCCCC(=O)N(C)CCNc1ncnc3c1/C(=C/N2)C(=O)N3 [Compound 132],> 10
3.16,2.34,0.363,> 10,> 10,> 10,> 10,> 10,> 10,CN1CCCCNc2ncnc3c2/C(=C/Nc2cccc(c2)OCC1=O)C(=O)N3 [Compound 143],> 10
